Assay results from patent US8198285B2, “Pyrazine derivatives” (Astrazeneca AB, priority 2010, dated 2012).
Structures can show the parent of a compound that is named as a salt.

How the values were obtained:
[1] = molecular target: CHK2 (checkpoint kinase 2) (Homo sapiens, UniProt O96017); test: Inhibitory activity against CHK2; format: biochemical
[2] = molecular target: T1, CYP3A4 (Homo sapiens, UniProt P08684); test: CYP3A4 inhibition (midazolam oxidation to 1'-hydroxymidazolam); format: in vitro ADME; conditions: E. coli expressed 3A4 membranes, midazolam 2.5 μM; read-out: IC50 CYP3A4 (estimated)
T1 construct: purchased Cypex (Dundee, UK); host or cells: E. coli (membranes)
T1 sequence (P08684 whole entry): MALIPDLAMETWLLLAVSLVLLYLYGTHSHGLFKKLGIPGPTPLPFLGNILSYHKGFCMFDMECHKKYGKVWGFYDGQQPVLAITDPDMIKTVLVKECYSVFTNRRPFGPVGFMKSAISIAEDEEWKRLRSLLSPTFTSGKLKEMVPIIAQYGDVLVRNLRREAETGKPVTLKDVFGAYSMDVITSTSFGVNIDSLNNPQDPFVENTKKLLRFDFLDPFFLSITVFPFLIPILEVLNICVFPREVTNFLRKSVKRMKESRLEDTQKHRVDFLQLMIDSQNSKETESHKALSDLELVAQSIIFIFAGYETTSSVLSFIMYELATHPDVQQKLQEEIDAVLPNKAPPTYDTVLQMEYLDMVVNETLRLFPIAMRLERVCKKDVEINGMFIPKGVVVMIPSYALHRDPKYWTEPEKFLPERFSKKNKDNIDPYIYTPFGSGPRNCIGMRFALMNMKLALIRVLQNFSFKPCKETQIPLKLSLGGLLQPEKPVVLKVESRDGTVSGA
Description: The ability of certain compounds to inhibit CYP3A4 in membranes was determined from the inhibition of midazolam oxidation to 1′-hydroxy midazolam. […] Employing an automated assay (full IC50) using the Automation Platform, up to thirteen compounds were run per plate as well as ketoconazole as a standard inhibitor of CYP3A4.
The incubations were carried out in 0.1 M phosphate buffer (pH 7.4 at 37° C.) containing DMSO (1%), midazolam (2.5 μM), phenacetin (25.7 μM), diclofenac (1.8 μM), S-mephenyloin (30.5 μM), bufuralol (8.8 μM), NADPH (1 mM), E. coli expressed 3A4 membranes (5 pmol/ml), 1A2 membranes (25 pmol/ml), 2C9 membranes (5 pmol/ml), 2C19 membranes (2.5 pmol/ml), 2D6 membranes (5 pmol/ml), and the test inhibitors ketoconazole, α-napthoflavone, sulphaphenazole, tranylcypromine and quinidine. […]
The assay was run on a robotic sample processor. […] The samples were centrifuged, transferred to a clean plate and analysed by LC MS/MS, which was conducted using an Applied Biosystems-Sciex API4000 mass spectrometer, with Agilent HP1100 binary solvent delivery pumps, and CTC HTS-PAL autosampler. […] The formation of product (1′-hydroxymidazolam) was monitored. […]
Rates of reaction were calculated for each reaction by measuring MS/MS area units. […]
The degree of inhibition of CYP3A4 was calculated and expressed as an IC50 value. […]

[3] = tested on: osteoclast-derived tartrate-resistant acid phosphatase form 5b (TRAcP-5b); test: Bone biomarker evaluation: serum TRAcP-5b assay; format: in vivo, rat; conditions: oral once a day, 7 consecutive days, female CRL:CD rats
Description: For in vitro osteogenesis, human adipose-derived stem cells (hADSC) (Invitrogen, UK; catalogue number R7788-115) were seeded into 12-well plates at a density of 5000 cells/cm^2 and were cultured in a basal media of phenol red-free Dulbecco's Modified Eagles Medium (DMEM; Sigma-Aldrich, UK; catalogue number D1145) supplemented with 5% fetal bovine serum (FBS, Gibco, UK; catalogue number 10270) and 2 mM GlutaMax® (Gibco; catalogue number 35050). […] The formation of mineralized bone nodules was assessed during the time-course using Alizarin Red S staining. […] The amount of mineralisation was quantified through the extraction of the Alizarin Red S stain from bone nodules using a cetylpyridinium chloride extraction method, previously described (Gregory et al., Analytical Biochemistry, 2004, 329: 77-84; Hwang et al., Stem Cells and Development 17: 963-970, 2008). […] Following incubation, 200 μl aliquots were transferred to 96-well format and the absorbance at 550 nm was determined using a microplate spectrophotometer (SpectraMax Plus, Molecular Devices, USA). Data were expressed as mean absorbance at 550 nm±Standard error of mean (SEM). […] Data are shown as mean absorbance at 550 nm and analysed using one-way ANOVA followed by Tukey's multiple comparison post hoc test: n=9; ***, P<0.001. […]

Sequence of CHK2 (checkpoint kinase 2) (O96017 whole entry, species assumed): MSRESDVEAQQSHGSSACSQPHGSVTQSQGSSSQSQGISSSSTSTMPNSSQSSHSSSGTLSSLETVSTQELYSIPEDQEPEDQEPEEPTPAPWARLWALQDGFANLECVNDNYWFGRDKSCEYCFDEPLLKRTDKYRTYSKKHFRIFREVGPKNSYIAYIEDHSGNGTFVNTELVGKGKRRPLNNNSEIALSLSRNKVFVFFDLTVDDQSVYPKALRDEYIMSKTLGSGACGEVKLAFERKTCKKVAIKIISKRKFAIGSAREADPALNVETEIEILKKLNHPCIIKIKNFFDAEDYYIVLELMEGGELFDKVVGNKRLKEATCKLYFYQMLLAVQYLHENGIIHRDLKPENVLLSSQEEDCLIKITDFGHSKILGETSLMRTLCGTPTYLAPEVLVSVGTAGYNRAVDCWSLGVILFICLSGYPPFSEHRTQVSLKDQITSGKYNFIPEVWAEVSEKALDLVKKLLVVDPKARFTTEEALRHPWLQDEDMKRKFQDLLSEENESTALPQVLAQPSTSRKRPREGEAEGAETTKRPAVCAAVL

COCCCNCCCc1ccc(-c2cnc(N)c(C(=O)Nc3cccnc3)n2)cc1 [Example 1, 3-Amino-6-(4-{3-[(3-methoxypropyl)amino]propyl}phenyl)-N-pyridin-3-ylpyrazine-2-carboxamide tri-hydrochloride]
Inhibitory activity against CHK2 [1]: inhibitory activity | IC50 [2]: > 50 µM | Serum TRAcP-5b levels (marker of bone resorption) [3]: reduction in serum TRAcP-5b levels
